According to ChEMBL document CHEMBL5653603 (J Am Chem Soc, 2010):
pIC50: −log10 of the molar value. The source made the active and inactive calls. The calls are words filed in the database; no cut-off is given here.

Experiments:
[1] = biological target: Histone deacetylase 1 (Homo sapiens, UniProt Q13547); test: Inhibition of recombinant human HDAC1 using fluorogenic RHKKAc peptide as substrate by fluorescence assay; assay type: single protein
[2] = biological target: T1, Protein deacetylase HDAC6 (Homo sapiens, UniProt Q9UBN7); test: Inhibition of recombinant human HDAC6 using fluorogenic RHKKAc peptide as substrate by fluorescence assay
T1 sequence (Q9UBN7 whole entry): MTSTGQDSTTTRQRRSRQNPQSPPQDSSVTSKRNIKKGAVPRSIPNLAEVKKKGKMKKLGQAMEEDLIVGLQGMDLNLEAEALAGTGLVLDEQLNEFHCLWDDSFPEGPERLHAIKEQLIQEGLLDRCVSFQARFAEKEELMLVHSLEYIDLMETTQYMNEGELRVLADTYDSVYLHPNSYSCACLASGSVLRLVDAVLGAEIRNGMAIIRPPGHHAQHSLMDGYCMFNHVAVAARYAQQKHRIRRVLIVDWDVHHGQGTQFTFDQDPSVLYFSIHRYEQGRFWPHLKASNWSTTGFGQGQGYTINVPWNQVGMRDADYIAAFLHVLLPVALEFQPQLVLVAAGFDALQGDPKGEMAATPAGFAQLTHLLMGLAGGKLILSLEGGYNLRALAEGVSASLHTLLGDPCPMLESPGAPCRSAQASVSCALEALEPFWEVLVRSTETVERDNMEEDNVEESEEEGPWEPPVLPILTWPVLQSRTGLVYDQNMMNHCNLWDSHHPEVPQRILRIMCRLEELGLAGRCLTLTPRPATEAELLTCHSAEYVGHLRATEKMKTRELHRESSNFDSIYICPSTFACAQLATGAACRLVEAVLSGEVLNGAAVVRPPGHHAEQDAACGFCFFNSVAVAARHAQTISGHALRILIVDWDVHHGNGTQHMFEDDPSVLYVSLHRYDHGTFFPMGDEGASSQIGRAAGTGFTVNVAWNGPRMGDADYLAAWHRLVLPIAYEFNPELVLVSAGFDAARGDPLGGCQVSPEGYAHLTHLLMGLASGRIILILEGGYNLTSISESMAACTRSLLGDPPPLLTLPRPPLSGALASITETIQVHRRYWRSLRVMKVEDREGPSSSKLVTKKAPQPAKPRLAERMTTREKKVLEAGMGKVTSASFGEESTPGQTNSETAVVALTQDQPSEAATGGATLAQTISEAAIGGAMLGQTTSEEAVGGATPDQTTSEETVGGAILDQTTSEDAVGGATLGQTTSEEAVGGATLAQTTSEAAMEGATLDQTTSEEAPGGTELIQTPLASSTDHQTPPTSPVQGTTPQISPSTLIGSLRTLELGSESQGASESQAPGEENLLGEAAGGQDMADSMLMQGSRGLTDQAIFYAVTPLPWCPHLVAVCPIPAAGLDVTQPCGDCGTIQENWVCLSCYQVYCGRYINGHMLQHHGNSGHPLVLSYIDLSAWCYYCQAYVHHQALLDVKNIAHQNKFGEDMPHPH

[3] = organism: Homo sapiens; test: Selectivity ratio of IC50 for recombinant human HDAC1 to IC50 for recombinant human HDAC6
[4] = system: Primary cortical neuron; test: Inhibition of HDAC6 in Sprague-Dawley rat primary cortical neurons assessed as induction of alpha-tubulin hyperacetylation at 2.5 uM measured after 30 mins by Western blot analysis; assay type: cell-based
[5] = Inhibition of class 1 HDAC in Sprague-Dawley rat primary cortical neurons assessed as induction of histone hyperacetylation at 10 uM measured after 30 mins by Western blot analysis; assay type: cell-based; conditions: primary cortical neuron, 0.5 h
[6] = system: Cortical neurone; test: Neuroprotective activity against HCA-induced Sprague-Dawley rat primary cortical neuron death assessed as increase in neuron survival measured after 24 hrs by MTT assay; assay type: functional, cell-based; conditions: dose 1-10 µM
[7] = Neurotoxicity against Sprague-Dawley rat primary cortical neurons assessed as reduction in neuron survival at 1 to 10 uM measured after 24 hrs by MTT assay; assay type: toxicity, cell-based; conditions: cortical neurone, dose 1-10 µM
[8] = system: Cortical neurone; test: Neuroprotective activity against HCA-induced Sprague-Dawley rat primary cortical neuron death assessed as increase in neuron survival at 0.5 uM measured after 24 hrs by MTT assay; assay type: functional, cell-based

Histone deacetylase 1, sequence (Q13547 whole entry): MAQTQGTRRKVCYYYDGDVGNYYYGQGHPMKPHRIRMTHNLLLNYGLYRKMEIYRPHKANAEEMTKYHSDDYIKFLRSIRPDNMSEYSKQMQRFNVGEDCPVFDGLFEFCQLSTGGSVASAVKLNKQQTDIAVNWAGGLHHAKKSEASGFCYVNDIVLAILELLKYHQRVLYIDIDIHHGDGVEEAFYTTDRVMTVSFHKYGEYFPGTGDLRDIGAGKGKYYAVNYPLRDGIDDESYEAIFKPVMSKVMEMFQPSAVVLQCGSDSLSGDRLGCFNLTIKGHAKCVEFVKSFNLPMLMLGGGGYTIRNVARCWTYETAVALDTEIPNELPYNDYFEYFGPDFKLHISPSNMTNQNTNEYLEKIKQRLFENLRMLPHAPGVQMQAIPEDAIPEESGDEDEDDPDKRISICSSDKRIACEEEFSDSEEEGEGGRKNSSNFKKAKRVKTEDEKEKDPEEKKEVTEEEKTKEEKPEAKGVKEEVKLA

`CN1CCc2c(n(Cc3ccc(C(=O)NO)cc3)c3ccccc23)C1` gave a pIC50 [1] of 5.29, a pIC50 [2] of 9.00 and a Ratio IC50 [3] of 3700.

`O=C(NO)c1ccc(Cn2c3ccccc3c3ccccc32)cc1` gave a pIC50 [1] of 4.96 and a Ratio IC50 [3] of 574.

In the case of `CN1CCc2c(n(CCCCCC(=O)NO)c3ccccc23)C1`, the pIC50 [1] was < 4.52 and the pIC50 [2] was 6.26.

With `O=C(NO)c1ccc(CCn2c3ccccc3c3ccccc32)cc1` the pIC50 [1] was < 4.52 and the pIC50 [2] was 6.74.

With `O=C(Cc1ccc(Cn2c3ccccc3c3ccccc32)cc1)NO` the pIC50 [1] was < 4.52 and the pIC50 [2] was 6.52.

Work on `O=C(CCCCCn1c2c(c3ccccc31)CCCC2)NO` yielded a pIC50 [1] of 5.07 and a pIC50 [2] of 7.05.

Molecule `O=C(CCCCCn1c2ccccc2c2ccccc21)NO` has a pIC50 [1] of 4.85, a pIC50 [2] of 7.21 and a Ratio IC50 [3] of 226.

With `CN1CCc2c(c3ccccc3n2Cc2ccc(C(=O)NO)cc2)C1.O=C(O)C(F)(F)F` the inhibition [4] was “Active”, the “inhibition (INH)” value [5] was “Active” and the Activity [6] was “Dose-Dependent Effect”. For the same molecule, the Activity [7] was “Non-Toxic”.

With `O=C(NO)n1c2ccccc2c2ccccc21` the pIC50 [1] was < 4.52 and the pIC50 [2] was < 4.52.

With `CC(/C=C/C(=O)NO)=C\[C@@H](C)C(=O)c1ccc(N(C)C)cc1` [TRICHOSTATIN] the Activity [7] was “Toxic” and the Activity [8] was “Active”.

`CN1CCc2c(c3ccccc3n2CCCCCC(=O)NO)C1` gave a pIC50 [1] of 4.60 and a pIC50 [2] of 6.67.

In the case of `O=C(CCn1c2ccccc2c2ccccc21)NO`, the pIC50 [1] was < 4.52.

With `O=C(CCCCCCC(=O)Nc1ccc([C@H]2O[C@@H](CSc3nc(-c4ccccc4)c(-c4ccccc4)o3)C[C@@H](c3ccc(CO)cc3)O2)cc1)NO` the inhibition [4] was “Active”.
